Measured values published in patent US10925969B2, “Anti-BCMA polypeptides and proteins” (priority 2015, dated 2021).

What was measured:
H929 cell line = experiment: Cell killing by trypan blue staining, cells seeded at 10^6 per ml; type: cell-based; settings: H929, agent added D-0 (LMB38 100 ng/ml), washed after D-3
Method: (§1) The BCMA-positive H929, U266, and RPMI cell lines were seeded at 10^6 per ml in 3 ml volume. LMB38 (BM24-Fab-LRggs) was added at 100 ng/ml at Day 0 (D-0). Cells (10 μl) were taken on different days and counted after trypan blue staining. After D-3, cells were washed and plated with media containing no toxin. For the 6 hour group, cells were washed after 6 h and plated in regular media containing no toxin. Cyclohexamide (Chxm) and 205 were used as positive controls; SS1-Fab-immunotoxin targeting mesothelin was used as a negative control (Ctrl).

RPMI cell line = experiment: as above; type: cell-based; settings: agent added D-0 (LMB38 100 ng/ml)
Method: as §1

U266 cell line = experiment: as above; type: cell-based; settings: U266, agent added D-0 (LMB38 100 ng/ml), washed after D-3
Method: as §1

BCMA-rFc protein = target: T1, BCMA-rFc protein (Homo sapiens, UniProt Q02223); experiment: Binding kinetics of MAbs by bio-layer interferometry (BLITZ); settings: for ka / kd: BCMA-rFc immobilized sensor
T1 construct: the extracellular domain of human BCMA (residues 1-54) fused to the Fc region; made in house
T1 sequence (Q02223 1-54): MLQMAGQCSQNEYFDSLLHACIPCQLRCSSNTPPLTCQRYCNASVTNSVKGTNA
Method: The binding kinetics of MAbs to BCMA were measured by bio-layer interferometry using a BLITZ (ForteBio, Menlo Park, Calif.) instrument. According to the manufacturer's instructions, BCMA-rFc were immobilized on amine-reactive second-generation biosensors by amine coupling following the activation of the sensor surface with N-hydroxysuccinimide (NHS) and N-ethyl-N-(3-dimethylaminopropyl) carbodiimide hydrochloride (EDC). Serial dilutions of MAbs were run across sensor surface at five different concentration in PBS (pH 7.4). The sensorgram data set was globally fit using the built-in BLITZ software to determine association rate constant (Ka), dissociation rate constant (Kd), and affinity constant (KD).
The binding kinetics of these two anti-BCMA mAbs against BCMA-rFc protein were measured by bio-layer interferometry. Serial dilutions of anti-BCMA MAbs (20, 10, 5, 2.5, 1.25 μg/ml) were applied to the BCMA-rFc immobilized sensor and detected. Real-time biomolecular interaction analyses were performed with BLITZ software. […] The dissociation constants (KD) of both mAbs were less than 1×10^−12 (exceeded the detection limits).

[1] = system: TNFRs (BCMA, TACI or BAFFR); experiment: Cross-reactivity with TNFR superfamily members by FACS (transfected 293T cells) and ELISA (TNFR-rFc); type: binding, human; settings: mAb at 4 μg/ml
Method: For transfection experiments, 293T cells were seeded in 100 mm dishes (BD Biosciences, Bedford, Mass.) and grown at the subconfluent densities. pcDNA6/BCMA, pcDNA/TACI, or pcDNA6/BAFFR (6 μs) were transfected per dish by LIPOFECTAMINE LX and PLUS reagent according to the manufacturer's instructions. After 24 h, the transiently transfected cells were harvested and used for FACS screening. Cells (1-5×10^5) were incubated with serial dilution of hybridoma supernatants in FACS buffer (PBS containing 5% FBS and 0.1% sodium azide) for 1 h on ice. After washing twice with FACS buffer, the cells were incubated with 1:200 dilution of R-Phycoerythrin (PE)-labelled goat anti-mouse IgG F(ab′)2 (Jackson Immuno Research Laboratories, West Grove, Pa.) for 30 min. After washing twice, the cells were resuspended in 180 μl FACS buffer containing 10 nM TO-PRO-3 stain (Invitrogen), and the fluorescence associated with the live cells was measured using a BD ACCURI C6 flow cytometer (BD Biosciences). Positive hybridoma clones were transferred to 24-well pates. To exclude the false positive in the first screening, 24-well culture supernatants were re-assayed 2 days after transfer. […] The isotype of established monoclonal antibodies (MAb) was determined by a mouse MAb isotyping reagents (Sigma-Aldrich). Immunoglobulin concentrations in the culture supernatants were determined by a sandwich ELISA. […]

[2] = target: T2, BCMA-expressing 293T cells (Homo sapiens, UniProt Q02223); experiment: FACS screening of binding to cell-surface BCMA
T2 construct: One vector encoded the full-length human BCMA; expressed in transfected cells; host or cells: 293T cells transiently transfected with pcDNA6/BCMA
T2 sequence (Q02223 1-184): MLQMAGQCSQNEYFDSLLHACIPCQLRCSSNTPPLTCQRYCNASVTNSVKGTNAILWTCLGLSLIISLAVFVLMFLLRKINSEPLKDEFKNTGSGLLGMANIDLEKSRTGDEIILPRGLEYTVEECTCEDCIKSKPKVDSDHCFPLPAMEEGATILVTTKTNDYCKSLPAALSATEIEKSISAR
Method: For transfection experiments, 293T cells were seeded in 100 mm dishes (BD Biosciences, Bedford, Mass.) and grown at the subconfluent densities. pcDNA6/BCMA, pcDNA/TACI, or pcDNA6/BAFFR (6 μs) were transfected per dish by LIPOFECTAMINE LX and PLUS reagent according to the manufacturer's instructions. After 24 h, the transiently transfected cells were harvested and used for FACS screening. Cells (1-5×10^5) were incubated with serial dilution of hybridoma supernatants in FACS buffer (PBS containing 5% FBS and 0.1% sodium azide) for 1 h on ice. […] After washing twice, the cells were resuspended in 180 μl FACS buffer containing 10 nM TO-PRO-3 stain (Invitrogen), and the fluorescence associated with the live cells was measured using a BD ACCURI C6 flow cytometer (BD Biosciences). […] The isotype of established monoclonal antibodies (MAb) was determined by a mouse MAb isotyping reagents (Sigma-Aldrich). Immunoglobulin concentrations in the culture supernatants were determined by a sandwich ELISA.
Mice were intraperitoneally immunized with BCMA-rFc fusion protein in adjuvant for the first immunization, and subsequently immunized 5 times with BCMA-rFc without adjuvant. High antibody titers (1:10,000) against the BCMA-expressing 293T cells were detected in the sera from mice immunized with BCMA-rFc. […]

H929 cells = experiment: WST-8 assay of AF647-labeled and unlabeled LMB70; type: cell-based; settings: for IC50 (WST-8): in ng/mL
Method: (§2) LMB70 was labeled with AF647 for measurement of uptake in vivo. LMB70 was labeled twice with AF647 using an AF647 labeling kit (Life Technologies). Labeling efficacy and activity were measured by WST-8 assay and affinity measurement.

BCMA = target: T3, BCMA (Homo sapiens, UniProt Q02223); experiment: Affinity measurement of AF647-labeled and unlabeled LMB70; type: binding; settings: after the first labeling
T3 sequence (Q02223 1-184): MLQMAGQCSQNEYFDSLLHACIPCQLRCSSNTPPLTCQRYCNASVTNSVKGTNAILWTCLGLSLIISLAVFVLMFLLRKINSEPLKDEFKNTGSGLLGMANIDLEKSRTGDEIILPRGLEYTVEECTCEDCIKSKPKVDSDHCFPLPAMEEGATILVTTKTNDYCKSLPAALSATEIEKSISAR
Method: as §2

[3] = target: T4, BCMA molecules on the surface of H929 cells (Homo sapiens, UniProt Q02223); experiment: Quantification of BCMA molecules on cell surface by flow cytometry with labeled LMB70; type: binding; settings: 1h on ice
T4 construct: endogenous in cells; host or cells: H929 cells
T4 sequence (Q02223 1-184): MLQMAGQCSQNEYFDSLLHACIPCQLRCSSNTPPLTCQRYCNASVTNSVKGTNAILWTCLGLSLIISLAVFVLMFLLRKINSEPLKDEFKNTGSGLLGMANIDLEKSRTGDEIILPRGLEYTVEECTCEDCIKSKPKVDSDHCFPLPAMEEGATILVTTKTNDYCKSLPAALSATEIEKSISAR
Method: To quantify the BCMA molecules on the surface of H929 cells, H929 cells were incubated with various concentrations of labeled LMB70 for 1h on ice in FLOW buffer. The cells were washed and analyzed by flow cytometry, together with AF647 quantification beads.

Q: What does the source list for `C[C@@H]1C[C@@H]([C@H](O)CC2CC(=O)NC(=O)C2)C(=O)[C@@H](C)C1` [Chxm, Cyclohexamide]?
A: Percent dead (H929 cell line; D-0): 9%; Percent dead (H929 cell line; D-1): 70%; Percent dead (H929 cell line; D-2): 92%; Percent dead (H929 cell line; D-3): 100%; Percent dead (H929 cell line; D-6): 100%; Percent dead (RPMI cell line; washed after D-3, D-0): 15%; Percent dead (RPMI cell line; washed after D-3, D-1): 75%; Percent dead (RPMI cell line; washed after D-3, D-2): 100%; Percent dead (RPMI cell line; washed after D-3, D-3): 100%; Percent dead (RPMI cell line; washed after D-3, D-6): 100%; Percent dead (U266 cell line; D-0): 7%; Percent dead (U266 cell line; D-1): 25%; Percent dead (U266 cell line; D-2): 50%; Percent dead (U266 cell line; D-3): 80%; Percent dead (U266 cell line; D-6): 100%

B1: BM306: anti-BCMA mAb, IgG1 isotype; VH SEQ ID NO: 15, VL SEQ ID NO: 16 (antibody, V domains shown)
VH: MEVQLQQSGPELVKPGASVKISCKTSGYTFTEYTINWVKQSHGKSLEWIGDIYPDNYNIRYNQKFKGKATLTVDKSSSTAYMELRSLSSEDSAIYYCANHDFFVFWGQGTLVTVSAAK
VL: MDIQMTQATSSLSASLGDRVTINCRTSQDISNHLNWYQQKPDGTVKLLIYYTSRLQSGVPSRFSGSGSGTDYSLTISNLEQEDIGTYFCHQGNTLPPTFGGGTKLEIKR
modifications: IgG1
Q: For B1, which “association rate constant (Ka) compared to BM24” value (BCMA-rFc protein) is on record?
A: Its value is “high”.

Q: And the “ka” value (BCMA-rFc protein)?
A: The value was 415000 M⁻¹ s⁻¹.

Q: And the “kd” value (BCMA-rFc protein)?
A: Its value is <1e-07 s⁻¹.

Q: And the “cross-reactivity with other TNFR superfamily members” value [1]?
A: Its value is “specific to BCMA”.

Q: And the “binding to BCMA antigen on the cell surface” value [2]?
A: Its value is “high affinity and specificity”.

B2: BM24: anti-BCMA mAb, IgG1 isotype; VH SEQ ID NO: 13, VL SEQ ID NO: 14 (antibody, V domains shown)
VH: MEVQLQQSGPELVKPGASVKMSCKASGNTLTNYVIHWMKQMPGQGLDWIGYILPYNDLTKYNEKFTGKATLTSDKSSSSAYMELNSLTSEDSAVYYCTRWDWDGFFDPWGQGTTLTVSSAS
VL: MDIVMTQSPLSLPVSLGDQASISCRSTQSLVHSNGNTHLHWYLQRPGQSPKLLIYSVSNRFSEVPDRFSASGSGTDFTLKISRVEAEDLGVYFCSQTSHIPYTFGGGTKLEIKR
modifications: IgG1
Q: For B2, which “ka” value (BCMA-rFc protein) is on record?
A: The value was 297000 M⁻¹ s⁻¹.

Q: What about the “kd” value (BCMA-rFc protein) of the same molecule?
A: Its value is <1e-07 s⁻¹.

Q: What about the “cross-reactivity with other TNFR superfamily members” value [1] of the same molecule?
A: Its value is “specific to BCMA”.

Q: What about the “binding to BCMA antigen on the cell surface” value [2] of the same molecule?
A: The value was “high affinity and specificity”.

B3: labeled LMB70: LMB70 labeled with AF647 using an AF647 labeling kit (conjugate)
VH: EVQLQQSGPELVKPGASVKISCKTSGYTFTEYTINWVKQSHGKSLEWIGDIYPDNYNIRYNQKFKGKATLTVDKSSSTAYMELRSLSSEDSAIYYCANHDFFVFWGQGTLVTVSA
VL: DIQMTQATSSLSASLGDRVTINCRTSQDISNHLNWYQQKPDGTVKLLIYYTSRLQSGVPSRFSGSGSGTDYSLTISNLEQEDIGTYFCHQGNTLPPTFGGGTKLEIK
modifications: left off: another chain or arm of the molecule; a dimerising Fc or GST; small tags and cut ends
notes: LMB70 labeled with AF647 using an AF647 labeling kit
Q: B3 was tested. Which “IC50 (WST-8)” value (H929 cells; after the first labeling) did it give?
A: Its value is 6.082.

Q: What about the “IC50 (WST-8)” value (H929 cells; after the second labeling) of the same molecule?
A: The value was 10.69.

Q: What about the “fold less active than the unlabeled toxins” value (H929 cells; labeled versus unlabeled) of the same molecule?
A: The value was “about 4 fold”.

Q: And the “Bmax (affinity measurement)” value (BCMA)?
A: Its value is 1131.

Q: And the Bmax ([3]; first labeling)?
A: Its Bmax is 150,000 molecules per cell.

Q: What about the Bmax ([3]; second labeling) of the same molecule?
A: Its Bmax is 230,000 molecules per cell.
